In patent publication US10611750B2, “Tetrahydroquinoline compositions as bet bromodomain inhibitors” (FORMA Therapeutics, Inc., priority 2013, dated 2020) one finds IC50 data, which are given here for 24 compounds.

Assay [1] addresses T1, BRD4 Bromodomain 2 (BRD4 BD2) (Homo sapiens, UniProt O60885).
T1 construct: 333-460 were cloned, expressed, and purified to homogeneity
In words: AlphaScreen binding assay, BRD4 BD2. The following applies: His-tagged BRD4 BD2 100 nM, biotinylated H4 (1-21) K5/8/12/16 tetra-acetylated peptide 100 nM, compounds listed under IC50 range headings. The procedure, abridged:
(§1)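 An AlphaScreen competition format was used with His-BRD4 BD1 or BD2 and biotin-H4 K5/8/12/16-acetyl peptide, each at matched final levels of 50 nM (BD1) or 100 nM (BD2). Incubation in HEPES/NaCl buffer with 0.1% BSA and 0.01% Triton X-100 ran ≥1 h before IC50 determination.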
In general terms: Alpha assays give light when donor and acceptor beads are brought close together.

Assay [2] addresses T2, BRD4 Bromodomain 1 (BRD4 BD1) (Homo sapiens, UniProt O60885).
T2 construct: 44-168 and BRD4 BD2
In words: AlphaScreen binding assay, BRD4 BD1. The settings on record: His-tagged BRD4 BD1 50 nM, biotinylated H4 (1-21) K5/8/12/16 tetra-acetylated peptide 50 nM, compounds listed under IC50 range headings. In a few lines:
as §1

In assay [3] the test system is acute myelocytic leukemia (AML) cell line MV4-11. In words: Oncology cell growth assay (3-day proliferation, CellTiter-Glo). The settings on record: Homo sapiens, MV4-11, 72 h, MV4-11 cells, 3000 cells/well, compounds listed under IC50 range headings, read-out: MV411 IC50 (gIC50, inhibition of proliferation). The format is cell-based. The procedure, abridged:
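72 h, 37° C, 5% CO2; MV4-11, 3000 cells/well, RPMI 1640 + 10% FBS. Compound final 10, 3.3, 1.1, 0.37, 0.12, 0.041, 0.013, 0.0045 μM. Readout CellTiter-Glo luminescence; gIC50 by 4-parameter logistic fit, normalised to DMSO and no-cell background.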

Where “and” joins values, the source holds several entries; their conditions need not be identical. Identical values can stand only once.

Turning to `CC(=O)N1c2ccc(-c3cnn(C4CCNCC4)c3)c(Oc3ccc(F)cc3)c2CC[C@@H]1C` [I-190, (S)-1-(5-(4-fluorophenoxy)-2-methyl-6-(1-(piperidin-4-yl)-1H-pyrazol-4-yl)-3,4-dihydroquinolin-1(2H)-yl)ethanone], the IC50 in assay [1] was 50 to 500 nM; in assay [2], 100 to 1000 nM; in assay [3] it was under 500 nM.
The matching figures for `CC(=O)N1c2ccc(-c3cnn(C4CCNCC4)c3)c(Oc3ccc(Cl)cc3)c2CC[C@@H]1C` [I-191, (S)-1-(5-(4-chlorophenoxy)-2-methyl-6-(1-(piperidin-4-yl)-1H-pyrazol-4-yl)-3,4-dihydroquinolin-1(2H)-yl)ethanone]: under 50 nM, 100 to 1000 nM and under 500 nM.
In the same order, the values of `COC(=O)N1c2ccc(-c3cnn(C4CCNCC4)c3)c(Oc3ccccc3)c2CC[C@@H]1C` [I-200, (S)-methyl 2-methyl-5-phenoxy-6-(1-(piperidin-4-yl)-1H-pyrazol-4-yl)-3,4-dihydroquinoline-1(2H)-carboxylate] are under 50 nM, 100 to 1000 nM and under 500 nM.
In the same order, the values of `CC(=O)N1c2ccc(-c3cnn(C4CCNCC4)c3)c(Oc3ccccc3)c2CC[C@@H]1C` [I-201, (S)-1-(2-methyl-5-phenoxy-6-(1-(piperidin-4-yl)-1H-pyrazol-4-yl)-3,4-dihydroquinolin-1(2H)-yl)ethanone] are under 50 nM, 100 to 1000 nM and under 500 nM.
`CC(=O)N1c2ccc(-c3cnn(C4CC4)c3)c(Oc3ccc(C(N)=O)cc3)c2CC[C@@H]1C` [I-209, (S)-4-(1-acetyl-6-(1-cyclopropyl-1H-pyrazol-4-yl)-2-methyl-1,2,3,4-tetrahydroquinolin-5-yloxy)benzamide]: the figures for the IC50 in assay [1], in assay [2] and in assay [3] were 50 to 500 nM, 100 to 1000 nM and under 500 nM, respectively.
In the same order, the values of `CC(=O)N1c2ccc(-c3cnn(C4CC4)c3)c(Oc3ccccc3F)c2CC[C@@H]1C` [I-210, (S)-1-(6-(1-cyclopropyl-1H-pyrazol-4-yl)-5-(2-fluorophenoxy)-2-methyl-3,4-dihydroquinolin-1(2H)-yl)ethanone] are under 50 nM, 100 to 1000 nM and under 500 nM.
The matching figures for `CC(=O)N1c2ccc(-c3cnn(C4CC4)c3)c(Oc3ccccc3Cl)c2CC[C@@H]1C` [I-211, (S)-1-(5-(2-chlorophenoxy)-6-(1-cyclopropyl-1H-pyrazol-4-yl)-2-methyl-3,4-dihydroquinolin-1(2H)-yl)ethanone]: under 50 nM, 100 to 1000 nM and under 500 nM.
The matching figures for `COC(=O)N1c2ccc(-c3cnn(C4CC4)c3)c(Oc3ccc(F)cc3)c2CC[C@@H]1C` [I-212, (S)-methyl 6-(1-cyclopropyl-1H-pyrazol-4-yl)-5-(4-fluorophenoxy)-2-methyl-3,4-dihydroquinoline-1(2H)-carboxylate]: 50 to 500 nM, 1000 to 10000 nM and under 500 nM.
For `COC(=O)N1c2ccc(-c3cnn(C4CC4)c3)c(Oc3ccc(C#N)cc3)c2CC[C@@H]1C` [I-213, (S)-methyl 5-(4-cyanophenoxy)-6-(1-cyclopropyl-1H-pyrazol-4-yl)-2-methyl-3,4-dihydroquinoline-1(2H)-carboxylate], the IC50 in assay [1] is 50 to 500 nM; in assay [2], 100 to 1000 nM; in assay [3], under 500 nM.
Take `COC(=O)N1c2ccc(-c3cnn(C4CC4)c3)c(Oc3ccc(Cl)cc3)c2CC[C@@H]1C` [I-214, (S)-methyl 5-(4-chlorophenoxy)-6-(1-cyclopropyl-1H-pyrazol-4-yl)-2-methyl-3,4-dihydroquinoline-1(2H)-carboxylate]: the values for the IC50 in assay [1], in assay [2] and in assay [3] were under 50 nM, 1000 to 10000 nM and under 500 nM, respectively.
In the same order, the values of `COC(=O)N1c2ccc(-c3cnn(C4CC4)c3)c(Oc3ccccc3Cl)c2CC[C@@H]1C` [I-215, (S)-methyl 5-(2-chlorophenoxy)-6-(1-cyclopropyl-1H-pyrazol-4-yl)-2-methyl-3,4-dihydroquinoline-1(2H)-carboxylate] are 50 to 500 nM, 1000 to 10000 nM and 500 to 1000 nM.
In the same order, the values of `COC(=O)N1c2ccc(-c3cnn(C4CC4)c3)c(Oc3ccc(C(N)=O)cc3)c2CC[C@@H]1C` [I-216, (S)-methyl 5-(4-carbamoylphenoxy)-6-(1-cyclopropyl-1H-pyrazol-4-yl)-2-methyl-3,4-dihydroquinoline-1(2H)-carboxylate] are under 50 nM, 100 to 1000 nM and under 500 nM.
In the same order, the values of `CC(=O)N1c2ccc(-c3cnn(C4CC4)c3)c(Oc3ccc(C#N)cc3)c2CC[C@@H]1C` [I-217, (S)-4-(1-acetyl-6-(1-cyclopropyl-1H-pyrazol-4-yl)-2-methyl-1,2,3,4-tetrahydroquinolin-5-yloxy)benzonitrile] are under 50 nM, 100 to 1000 nM and under 500 nM.
Turning to `C[C@H]1CCc2c(ccc(-c3ccn[nH]3)c2Oc2ccccc2)N1C(=O)C1CC1` [I-218, (S)-cyclopropyl(2-methyl-5-phenoxy-6-(1H-pyrazol-5-yl)-3,4-dihydroquinolin-1(2H)-yl)methanone], the results for the IC50 in assay [1], in assay [2] and in assay [3] were under 50 nM, 1000 to 10000 nM and under 500 nM, respectively.
The matching figures for `C[C@H]1CCc2c(ccc(-c3cnn(C)c3)c2Oc2ccccc2)N1C(=O)C1CC1` [I-224, (S)-cyclopropyl(2-methyl-6-(1-methyl-1H-pyrazol-4-yl)-5-phenoxy-3,4-dihydroquinolin-1(2H)-yl)methanone]: under 50 nM, 100 to 1000 nM and under 500 nM.
`CC(=O)N1c2ccc(-c3cnn(C4CC4)c3)c(Oc3ccc(F)cc3)c2CC[C@@H]1C` [I-225, (S)-1-(6-(1-cyclopropyl-1H-pyrazol-4-yl)-5-(4-fluorophenoxy)-2-methyl-3,4-dihydroquinolin-1(2H)-yl)ethanone]: the figures for the IC50 in assay [1], in assay [2] and in assay [3] were under 50 nM, 100 to 1000 nM and under 500 nM, respectively.
In the same order, the values of `CC(=O)N1c2ccc(-c3cnn(C4CC4)c3)c(Oc3ccc(Cl)cc3)c2CC[C@@H]1C` [I-226, (S)-1-(5-(4-chlorophenoxy)-6-(1-cyclopropyl-1H-pyrazol-4-yl)-2-methyl-3,4-dihydroquinolin-1(2H)-yl)ethanone] are 50 to 500 nM, 100 to 1000 nM and under 500 nM.
Take `COC(=O)N1c2ccc(-c3cnn(C4CCN(C)CC4)c3)c(Oc3ccc(Cl)cc3C#N)c2CC[C@@H]1C` [I-245, methyl (S)-5-(4-chloro-2-cyanophenoxy)-2-methyl-6-(1-(1-methylpiperidin-4-yl)-1H-pyrazol-4-yl)-3,4-dihydroquinoline-1(2H)-carboxylate]: the IC50 in assay [1] is under 50 nM; in assay [2], 100 to 1000 nM and ≥ 10000 nM; in assay [3], under 500 nM.
Turning to `CC(=O)N1c2ccc(-c3cnn(C4CCN(C)CC4)c3)c(Oc3ccccc3C#N)c2CC[C@@H]1C` [I-246, (S)-2-((1-acetyl-2-methyl-6-(1-(1-methylpiperidin-4-yl)-1H-pyrazol-4-yl)-1,2,3,4-tetrahydroquinolin-5-yl)oxy)benzonitrile], the results for the IC50 in assay [1], in assay [2] and in assay [3] were under 50 nM, 100 to 1000 nM and under 500 nM, respectively.
The matching figures for `COC(=O)N1c2ccc(-c3cnn(C4CCN(C)C4)c3)c(OC3CCC3)c2CC[C@@H]1C` (stereo partly drawn) [I-247, (2S)-methyl 5-cyclobutoxy-2-methyl-6-(1-(1-methylpyrrolidin-3-yl)-1H-pyrazol-4-yl)-3,4-dihydroquinoline-1 (211)-carboxylate]: 50 to 500 nM, 100 to 1000 nM and under 500 nM.
The matching figures for `COC(=O)N1c2ccc(-c3cnn(C4CCN(C)C4)c3)c(Oc3ccc(F)cc3)c2CC[C@@H]1C` (stereo partly drawn) [I-249, (2S)-methyl 5-(4-fluorophenoxy)-2-methyl-6-(1-(1-methylpyrrolidin-3-yl)-1H-pyrazol-4-yl)-3,4-dihydroquinoline-1(2H)-carboxylate]: under 50 nM, 100 to 1000 nM and under 500 nM.
In the same order, the values of `CCN1CC(Oc2c(-c3cnn(C4CC4)c3)ccc3c2CC[C@H](C)N3C(=O)OC)C1` [I-251, (S)-methyl 6-(1-cyclopropyl-1H-pyrazol-4-yl)-5-(1-ethylazetidin-3-yloxy)-2-methyl-3,4-dihydroquinoline-1(2H)-carboxylate] are 50 to 500 nM, 1000 to 10000 nM and over 1000 nM.
For the compound `COC(=O)N1c2ccc(-c3cnn(C4CC4)c3)c(OC3CN(C(C)C)C3)c2CC[C@@H]1C` [I-252, (S)-methyl 6-(1-cyclopropyl-1H-pyrazol-4-yl)-5-(1-isopropylazetidin-3-yloxy)-2-methyl-3,4-dihydroquinoline-1(2H)-carboxylate], the IC50 in assay [1] is at least 500 nM; in assay [2], 1000 to 10000 nM; in assay [3] it was over 1000 nM.
In the same order, the values of `CCN1CC(Oc2c(-c3cnn(C4CC4)c3)ccc3c2CC[C@H](C)N3C(C)=O)C1` [I-253, (S)-1-(6-(1-cyclopropyl-1H-pyrazol-4-yl)-5-(1-ethylazetidin-3-yloxy)-2-methyl-3,4-dihydroquinolin-1(2H)-yl)ethanone] are at least 500 nM, at least 10000 nM and over 1000 nM.
